Test systems include M14 melanoma; NCI/ADR-RES ovarian; UACC-62 melanoma; RPMI-8226 leukemia; SF-268 CNS; TK-10 renal; OVCAR-5 ovarian; KM12 colon.
Holding throughout (experiment): NCI-60 cell line screen, 48 h

SMILES strings stand for the structures. Where “and” joins values, the source holds several entries; their conditions need not be identical. Equal entries are not always repeated.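 Step 1: Grow cells in 96-well plates. Step 2: Expose to compound for 48 hours at 5 concentrations. Step 3: Interpolate endpoints linearly; if unreached, use highest concentration. Here, GI50 denotes the concentration required for 50% inhibition of growth. At the TGI there is no net growth.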 Some results are limits rather than exact numbers.

Consider `Clc1ccc(N/N=C/c2ccccn2)nc1`, for which the GI50 with M14 melanoma is 0.375 µM; in the test on NCI/ADR-RES ovarian, 0.383 µM; with UACC-62 melanoma, 0.301 µM; with RPMI-8226 leukemia, 0.462 µM; with SF-268 CNS, 0.365 µM; in the test with TK-10 renal, 0.442 µM. The figures for the GI50 in the test on OVCAR-5 ovarian and with KM12 colon were 0.433 µM and 0.395 µM, respectively. The TGI is over 100 µM with NCI/ADR-RES ovarian; 1.08 µM in the test on UACC-62 melanoma; 18.7 µM in the test on RPMI-8226 leukemia; over 100 µM in the test with SF-268 CNS; over 100 µM in the test with TK-10 renal; over 94.3 µM in the test on OVCAR-5 ovarian. For the same compound, the TGI with KM12 colon was over 54.7 µM.
As to `C=C1C(=O)O[C@H]2[C@H]1CC/C(COC(=O)NCc1c[nH]c3ccc(OC)cc13)=C\CC[C@@]1(C)O[C@@H]21`, the GI50 in the test with M14 melanoma was 1.36 µM; with NCI/ADR-RES ovarian it was 7.87 µM; with UACC-62 melanoma it was 1.7 µM; with RPMI-8226 leukemia, 0.266 µM; in the test on SF-268 CNS, 2.55 µM; with TK-10 renal, 1.95 µM. In addition, the GI50 with OVCAR-5 ovarian was 2.14 µM; in the test with KM12 colon, 3.54 µM. For the same compound, the TGI with M14 melanoma came to 3.4 µM; with NCI/ADR-RES ovarian it was 28.8 µM; with UACC-62 melanoma it was 3.69 µM; in the test on RPMI-8226 leukemia, 1.52 µM; in the test with SF-268 CNS, 7.65 µM; with TK-10 renal, 3.84 µM. Also, the TGI in the test on OVCAR-5 ovarian turned out to be 4.9 µM; with KM12 colon, 14 µM.
Regarding `Clc1ccc(-c2nc(-c3c[nH]c4ncccc34)cs2)cc1`, the GI50 in the test on M14 melanoma, with NCI/ADR-RES ovarian, with UACC-62 melanoma, in the test with RPMI-8226 leukemia, with SF-268 CNS and in the test with TK-10 renal was over 100 µM each time. Further, the GI50 in the test on OVCAR-5 ovarian and with KM12 colon was over 100 µM each time. The TGI with M14 melanoma, in the test on NCI/ADR-RES ovarian, with UACC-62 melanoma, in the test with RPMI-8226 leukemia, in the test on SF-268 CNS and in the test with TK-10 renal was over 100 µM throughout. Also, the TGI in the test on OVCAR-5 ovarian and with KM12 colon was over 100 µM in each case.
In the case of `CCS(=O)(=O)c1ccc(OC)c(Nc2ncc(-c3cccc(-c4ccccc4F)c3)o2)c1`, the GI50 was over 25 µM in the test with M14 melanoma; 15.4 µM in the test with NCI/ADR-RES ovarian; over 25 µM in the test on UACC-62 melanoma; 23.9 µM in the test with RPMI-8226 leukemia; 15.1 µM in the test with SF-268 CNS; 7.32 µM in the test on TK-10 renal. Further, the GI50 with OVCAR-5 ovarian is 13 µM; in the test with KM12 colon it was 0.833 µM. The TGI with M14 melanoma, with NCI/ADR-RES ovarian, in the test with UACC-62 melanoma, in the test with RPMI-8226 leukemia, in the test with SF-268 CNS and in the test with TK-10 renal was over 25 µM throughout. Further, the TGI in the test with OVCAR-5 ovarian and with KM12 colon was over 25 µM in each case.
Regarding `Nc1cccc(-c2nc3sccn3c2-c2ccnc(NCCCNS(=O)(=O)c3ccc(C(F)(F)F)cc3)n2)c1`, the GI50 with M14 melanoma is 3.89 µM; in the test with NCI/ADR-RES ovarian, 3.36 µM; with UACC-62 melanoma, 2.68 µM; with RPMI-8226 leukemia it was 2.45 µM; in the test with SF-268 CNS it was 3.97 µM; in the test with TK-10 renal, 11.1 µM. Besides, the values for the GI50 in the test on OVCAR-5 ovarian and with KM12 colon were 13.7 µM and 3.6 µM, respectively. Besides, the TGI in the test with M14 melanoma is 15.3 µM; with NCI/ADR-RES ovarian it was 56.9 µM; in the test with UACC-62 melanoma it was 9.71 µM; in the test with RPMI-8226 leukemia it was 6.54 µM; in the test with SF-268 CNS, 49.6 µM; with TK-10 renal it was over 100 µM. Moreover, the TGI in the test on OVCAR-5 ovarian stood at 95.1 µM; in the test on KM12 colon, 13.8 µM.
As to `COc1ccc(C2=C(Br)C(=O)OC2)cc1Cl`, the GI50 was over 53 µM in the test on M14 melanoma; 29.4 µM with NCI/ADR-RES ovarian; 20.9 µM in the test with UACC-62 melanoma; 17.3 µM with RPMI-8226 leukemia; 32.9 µM in the test with SF-268 CNS; 26.8 µM with TK-10 renal. The GI50 in the test with OVCAR-5 ovarian was 51.2 µM; in the test with KM12 colon, 23.6 µM. For the same compound, the TGI in the test on M14 melanoma was over 100 µM; with NCI/ADR-RES ovarian it was over 79.2 µM; in the test on UACC-62 melanoma, over 64.4 µM; in the test with RPMI-8226 leukemia, 48.5 µM; with SF-268 CNS, 99.6 µM; with TK-10 renal it was 77.9 µM. Besides, the TGI with OVCAR-5 ovarian was over 100 µM; with KM12 colon it was over 84.4 µM.
Take `CCCCC(SC(=S)N(CC)CC)C(=O)Nc1nc(CC(=O)OCC)cs1` (configuration not stated): the GI50 was 33.7 µM in the test on M14 melanoma; 42.9 µM in the test on NCI/ADR-RES ovarian; 29.8 µM in the test with UACC-62 melanoma; 22 µM in the test with RPMI-8226 leukemia; 54.3 µM in the test with SF-268 CNS; 82.9 µM in the test with TK-10 renal. Further, the GI50 in the test with OVCAR-5 ovarian was 40.3 µM; in the test with KM12 colon it was 31.6 µM. For the same compound, the TGI with M14 melanoma is over 100 µM; in the test on NCI/ADR-RES ovarian, over 100 µM; in the test on UACC-62 melanoma, over 100 µM; with RPMI-8226 leukemia, 85.2 µM; in the test on SF-268 CNS, over 100 µM; in the test with TK-10 renal it was over 100 µM. For the same compound, the TGI in the test on OVCAR-5 ovarian and in the test on KM12 colon was over 100 µM throughout.
For the compound `CNC(=O)c1cc(Oc2ccc3nc(NC(=O)c4cc(C(F)(F)F)cc(C(F)(F)F)c4)sc3c2)ccn1`, the GI50 with M14 melanoma is 3.61 µM; in the test on NCI/ADR-RES ovarian, 3.67 µM; in the test with UACC-62 melanoma, 2.71 µM; in the test on RPMI-8226 leukemia, 2.42 µM; with SF-268 CNS, 2.66 µM; with TK-10 renal it was 3.37 µM. Further, the GI50 was 4.23 µM in the test on OVCAR-5 ovarian and 2.7 µM in the test on KM12 colon. Further, the TGI with M14 melanoma is 19.4 µM; in the test with NCI/ADR-RES ovarian, 19.1 µM; with UACC-62 melanoma, 12.1 µM; with RPMI-8226 leukemia, over 100 µM; with SF-268 CNS, 17 µM; in the test with TK-10 renal it was 13.3 µM. Further, the TGI in the test on OVCAR-5 ovarian is 25 µM; in the test with KM12 colon it was 11 µM.
Regarding `CC(C)[C@@H]1NC(=O)[C@]2(C)CSC(=N2)c2csc(n2)CNC(=O)C[C@@H](/C=C/CCS)OC1=O`, the GI50 with M14 melanoma was 0.0835 µM; in the test on NCI/ADR-RES ovarian, 2.67 µM; in the test with UACC-62 melanoma it was 0.0477 µM; with RPMI-8226 leukemia it was 0.563 µM; with SF-268 CNS, 0.181 µM; in the test with TK-10 renal it was 0.0864 µM. Moreover, the GI50 is 0.0829 µM in the test with OVCAR-5 ovarian and 0.0526 µM in the test on KM12 colon. Also, the TGI was 52.7 µM in the test on M14 melanoma; over 100 µM with NCI/ADR-RES ovarian; 0.28 µM in the test on UACC-62 melanoma; 6.62 µM in the test on RPMI-8226 leukemia; over 100 µM in the test with SF-268 CNS; 1.35 µM in the test with TK-10 renal. The figures for the TGI in the test on OVCAR-5 ovarian and in the test on KM12 colon were over 100 µM and over 32.4 µM, respectively.
With `O=C1OCC2=C1C(c1ccccc1)c1cc3c(cc1N2CCO)CCC3` (configuration not stated), the GI50 is 0.0722 µM with M14 melanoma; 0.0521 µM in the test on NCI/ADR-RES ovarian; 0.111 µM in the test on UACC-62 melanoma; 0.106 µM in the test with RPMI-8226 leukemia; 0.0833 µM with SF-268 CNS; 1.52 µM in the test on TK-10 renal. For the same compound, the GI50 is 0.203 µM in the test with OVCAR-5 ovarian and 0.0793 µM in the test on KM12 colon. The TGI was 0.351 µM in the test on M14 melanoma; 0.139 µM in the test with NCI/ADR-RES ovarian; over 25 µM with UACC-62 melanoma; over 25 µM in the test with RPMI-8226 leukemia; 1.51 µM in the test on SF-268 CNS; over 25 µM in the test on TK-10 renal. The figures for the TGI with OVCAR-5 ovarian and in the test with KM12 colon were over 25 µM and 0.922 µM, respectively.
On to `C[C@@]12CCC[C@@](C)(C(=O)O)C1CC[C@]13C=C(CO)[C@](O)(CCC12)C3` (some centres not stated), for which the GI50 in the test with M14 melanoma, with NCI/ADR-RES ovarian, in the test with UACC-62 melanoma, in the test on RPMI-8226 leukemia, in the test with SF-268 CNS and in the test on TK-10 renal was over 100 µM each time. Besides, the GI50 in the test with OVCAR-5 ovarian and with KM12 colon was over 100 µM each time. Moreover, the TGI in the test on M14 melanoma, in the test with NCI/ADR-RES ovarian, in the test with UACC-62 melanoma, in the test with RPMI-8226 leukemia, in the test with SF-268 CNS and in the test on TK-10 renal was over 100 µM in each case. The TGI in the test on OVCAR-5 ovarian and with KM12 colon was over 100 µM each time.
Regarding `CCN(CC)CCC(CNc1c2ccc([N+](=O)[O-])cc2nc2cc(OC)c(OC)cc12)c1ccccc1` (configuration not stated), the GI50 in the test on M14 melanoma was 0.335 µM and 0.305 µM; in the test with NCI/ADR-RES ovarian, 1.53 µM and 1.72 µM; in the test on UACC-62 melanoma, 0.542 µM and 0.696 µM; in the test on RPMI-8226 leukemia, 0.272 µM and 0.0638 µM; in the test on SF-268 CNS it was 0.238 µM and 0.109 µM; in the test with TK-10 renal it was 1.04 µM and 0.485 µM. Besides, the GI50 with OVCAR-5 ovarian is 0.487 µM and 0.755 µM; in the test on KM12 colon, 0.276 µM and 0.105 µM. The TGI in the test on M14 melanoma is 1.4 µM and 1.23 µM; with NCI/ADR-RES ovarian, 5.1 µM and 5.07 µM; with UACC-62 melanoma, 1.91 µM and 2.01 µM; in the test with RPMI-8226 leukemia, 1.15 µM and 0.411 µM; with SF-268 CNS it was 1.29 µM and 0.573 µM; in the test with TK-10 renal, 2.27 µM and 1.62 µM. The TGI with OVCAR-5 ovarian was 1.93 µM and 2.3 µM; with KM12 colon it was 1.13 µM and 0.542 µM.
`O=C1OCC2=C1C(c1cccc([N+](=O)[O-])c1)c1cc3c(cc1N2CCO)CCC3` (configuration not stated): the GI50 with M14 melanoma was 0.112 µM; in the test on NCI/ADR-RES ovarian, 0.146 µM; in the test with UACC-62 melanoma, 0.0298 µM; in the test on RPMI-8226 leukemia, 0.25 µM; in the test with SF-268 CNS, 0.295 µM; in the test on TK-10 renal, 6.42 µM. Moreover, the figures for the GI50 in the test with OVCAR-5 ovarian and in the test on KM12 colon were 0.231 µM and 0.0928 µM, respectively. Also, the TGI with M14 melanoma is 17.2 µM; in the test with NCI/ADR-RES ovarian, over 11.3 µM; in the test with UACC-62 melanoma, over 24.8 µM; in the test with RPMI-8226 leukemia it was over 39 µM; in the test with SF-268 CNS, 22.9 µM; with TK-10 renal, over 50 µM. In addition, the values for the TGI in the test on OVCAR-5 ovarian and with KM12 colon were over 50 µM and 19.8 µM, respectively.

Source of the values: PubChem BioAssay (NCI).
